Assay results: patent US10285981B2, “Compositions and methods for treating amyotrophic lateral sclerosis in responders” (KNOPP BIOSCIENCES LLC, priority 2013, dated 2019)
Read-outs that look alike come from different tables or passages of the source.

Assays:
subjects with ALS [1] = settings: larger Phase III study; cited from earlier work
rodents [2] = settings: approximately
rodents [3] = settings: single oral dose, and above; cited from earlier work
dogs = settings: single oral dose, and above; cited from earlier work
monkeys = settings: single oral dose; cited from earlier work
humans = settings: cited from earlier work
ALS subjects [4] = settings: human, in vivo
ALS subjects [5] = settings: even after prolonged treatment; cited from earlier work
subjects with ALS [6] = tested on: subjects with ALS
Excerpt: Subjects with possible, probable, probable laboratory-supported, or definite ALS as defined by the El Escorial criteria who had ALS symptoms for ≤24 months at the time of entry into the study and a slow vital capacity of ≥65% of predicted were eligible to participate in this study. This study is described in more detail in the Examples.
Eligible subjects were between 18-80 years of age with a clinical diagnosis of possible, laboratory-supported probable, probable, or definite ALS, either familial or sporadic, in accordance with the revised El Escorial criteria. Subjects were required to have had onset of first ALS symptoms ≤24 months before Day 1 and an upright vital capacity of ≥65% of predicted value for age, height, and gender at screening. […] Subjects had to be able to swallow oral medications on Day 1 (FIG. 1).
Clinic visits and telephone calls/home visits may have occurred on alternating months. The primary efficacy analysis was a Combined Assessment of Function and Survival (CAFS), based on changes from baseline in the ALS Functional Rating Score-Revised (ALSFRS-R) scores or time to death using follow-up data through 12 months. […] Efficacy data was evaluated using 2-sided tests with α=0.05 for the primary and secondary endpoints. Adverse events and other safety indices were monitored throughout the study.
The primary endpoint of the method of Example 2 was the Combined Assessment of Function and Survival (CAFS), a joint-rank test that is a valid statistical approach for analyzing functional outcomes adjusted for mortality. The CAFS ranks subjects' outcomes based on both time to death and change from baseline in ALSFRS-R score using follow-up data through 12 months. CAFS is predicated on the comparison of outcomes of each subject to all other subjects in the study. A higher rank is assigned to subjects who survive versus those who die, and the change from baseline in the ALSFRS-R is used to rank each survivor. A higher CAFS ranking indicates a better global clinical outcome.
The ALSFRS-R score, VC, and McGill QoL-SIS scores were summarized by treatment group with the rate of change estimate derived from a linear mixed-effects model. Linear decline of the ALSFRS-R score over time has been shown previously. […] A mixed-model analysis was used to fit a model that included time, treatment group, and the interaction between time and treatment group simultaneously. The estimated coefficient of time, the slope, or rate of change, for each treatment group was used to test for differences between the treatment groups. Coefficient of time estimate along with its standard error was reported.

subjects with ALS [7] = settings: for decline in levels of serum creatinine: Part One; for mean decline in serum creatinine: Week 28
Excerpt: Therefore, the Part 2, Week 28 visit was pre-specified as the primary time-point for all Part 2 data analyses.

subjects with ALS [8] = tested on: subjects with ALS; remark: listed apart in the source
Excerpt: Response is defined according to two criteria:
This analysis examined subgroup definitions based on both single and dual attribute criteria, and evaluated the performance of each subgroup with respect the two criteria above. To facilitate ranking of subgroups, we have defined a scoring metric which aggregates these two-dimensional scores into a single scalar called “score” in our report files. Larger scores are better: scores increase when mortality rates decrease, and when ALSFRS-R changes from baseline become more positive (i.e. score decreases are reduced). This scoring scheme is somewhat arbitrary; it merely serves to guide our maximization process and provide convenient rankings of subgroup quality. The definition of the score could certainly be altered to reflect different priorities on treatment effects with respect to mortality or disease progression. For this reason, we provide a complete spreadsheet of results, which can be re-sorted and re-ordered according to arbitrary balancing criteria.
1. Mortality for patients is defined by the value of the “end_status_study” field. Patients are deemed dead if and only if the value of this field is “DEATH”; any other value is interpreted as survival;
2. Disease symptom progression is measured in terms of the change in total ALSFRS-R score from baseline, as reported in the “change from baseline” attribute of each patient. Specifically, we take the value of “change from baseline” that is reported at the final measurement time for each patient.;
4. We impose minimum subgroup size filters on our results to exclude promising signals which arise due to sampling artifacts, or which would be too narrow for consideration in future studies. Analyses were run for minimum group sizes of both 50 patients (data not shown) and 100 patients (i.e. for a cutoff of N, we require at least N patients in that subgroup for both the treated and untreated groups).

[9] = high-creatinine group, through 12 months

Q: With CC(=O)N1N=C(c2ccc(N)cc2)c2cc3c(cc2C[C@H]1C)OCO3 [talampanel] as the molecule, how does the “treatment effects in ALS” value (subjects with ALS [1]) read?
A: Its value is “failed to show any treatment effects”.

Q: Which “human dose equivalent to the rodent lethal dose, 70 kilogram individual” value (rodents [2]) does the source give for CCCN[C@H]1CCc2nc(N)sc2C1 [pramipexole, (6S)-2-amino-4,5,6,7-tetrahydro-6-(propylamino)benzothiazole] here?
A: The value was 500-850 milligrams.

Q: What about the “dose at which death occurred” value (rodents [3]) of the same molecule?
A: The value was 70-105 milligrams per kilogram.

Q: What about the “dose at which vomiting occurred” value (dogs) of the same molecule?
A: Its value is no less than 0.0007 milligrams per kilogram.

Q: What about the “dose at which major excitation was displayed” value (monkeys) of the same molecule?
A: Its value is 3.5 milligrams per kilogram.

Q: And the “maximally tolerated dose for humans” value (humans; Boehringer Ingelheim product insert for Mirapex)?
A: Its value is 4.5 milligrams per day.

Q: What about the “initial single dose not tolerated” value (humans; human subjects) of the same molecule?
A: Its value is “greater than 0.20 milligrams”.

Q: What about the “dose shown to cause somnolence” value (humans; humans, as low as) of the same molecule?
A: The value was 1.5 milligrams.

Q: What does the source list for Nc1nc2ccc(OC(F)(F)F)cc2s1 [riluzole]?
A: headaches reported, subjects receiving riluzole vs those not receiving riluzole (ALS subjects [4]): four times as many subjects; effect on ALSFRS-R score (ALS subjects [5]): has not demonstrated any effect

Q: For CCCN[C@@H]1CCc2nc(N)sc2C1 [dexpramipexole, (6R)-2-amino-4,5,6,7-tetrahydro-6-(propylamino)-benzothiazole], which “ALSFRS-R score change vs placebo group (exploratory analysis with covariate adjustment)” value (subjects with ALS [6]; 300 mg group, Month 18) is on record?
A: The value was “significant improvement”.

Q: And the “ALSFRS-R subdomain: behaviors associated with bulbar function, decline over baseline” value (subjects with ALS [6]; 300 mg/day)?
A: Its value is “less dramatic decline”.

Q: What about the “ALSFRS-R subdomain: behaviors associated with fine motor skills” value (subjects with ALS [6]; 300 mg/day) of the same molecule?
A: Its value is “dose dependent improvement over baseline”.

Q: What about the “combined assessment of function and survival (CAFS), least square means” value (subjects with ALS [6]; high-creatinine group (baseline serum creatinine > about 72 μmol/L), 150 mg twice daily, through 12 months) of the same molecule?
A: The value was 184.86.

Q: And the “slope of decline on the ALS Functional Rating Scale (Revised), least square means” value (subjects with ALS [6]; high-creatinine group, 150 mg twice daily, through 12 months)?
A: Its value is −0.925.

Q: And the “ALSFRS-R slope of decline, improvement in least square means between treatment and placebo” value (subjects with ALS [6]; [9])?
A: The value was 18%.

Q: What about the “CAFS improvement in least square means between treatment and placebo” value (subjects with ALS [6]; [9]) of the same molecule?
A: Its value is 19%.

Q: What about the “rate of mortality (Kaplan-Meier analysis)” value (subjects with ALS [6]; high-creatinine group, treatment group at 12 months) of the same molecule?
A: Its value is 10.3%.

Q: What about the “decline in levels of serum creatinine” value (subjects with ALS [7]; 50 mg group) of the same molecule?
A: The value was 0.05.

Q: What about the “decline in levels of serum creatinine” value (subjects with ALS [7]; 150 mg group) of the same molecule?
A: Its value is 0.06.

Q: And the “decline in levels of serum creatinine” value (subjects with ALS [7]; 300 mg group)?
A: The value was 0.0.

Q: What about the “combined assessment of function and survival (CAFS)” value (subjects with ALS [7]; Part Two, 300 mg daily dose, p=0.040) of the same molecule?
A: Its value is “significantly reduced reduction”.

Q: And the “mean decline in serum creatinine” value (subjects with ALS [7]; Part Two, daily dose 50 mg)?
A: The value was −0.12.

Q: What about the “mean decline in serum creatinine” value (subjects with ALS [7]; Part Two, daily dose 300 mg) of the same molecule?
A: Its value is “zero”.

Q: And the “relative change in the mean ALSFRS-R change from baseline, treated vs untreated” value (subjects with ALS [8]; definite diagnosis subgroup)?
A: Its value is −8.3%.

Q: What about the “abs_mort_rate_change: absolute difference in mortality rate, treated vs untreated” value (subjects with ALS [8]; in vivo) of the same molecule?
A: The value was −22.6%.

Q: What about the “mort rate change: relative change in mortality rate, treated vs untreated” value (subjects with ALS [8]; in vivo) of the same molecule?
A: Its value is −67.9%.

Q: And the “mortality rate lower for treated patients” value (subjects with ALS [8]; in vivo)?
A: Its value is 22.6 percentage points.

Q: And the “score: combined score of mortality and ALSFRS-R treatment effects” value (subjects with ALS [8]; in vivo)?
A: The value was 0.343.

Q: And the “trtd_mort_rate: mortality rate of treated patients” value (subjects with ALS [8]; in vivo)?
A: The value was 10.7%.

Q: And the “relative change in the mean ALSFRS-R change from baseline, treated vs untreated” value (subjects with ALS [8]; subgroup mean_pr_interval>184.5, minimum group size 100)?
A: The value was −20.5%.

Q: What about the “abs_alsfrs_change: absolute difference in mean ALSFRS-R total scores, treated vs untreated” value (subjects with ALS [8]; subgroup min_pr_interval>195) of the same molecule?
A: Its value is 5.623 points.

Q: And the “alsfrs change: relative change in mean ALSFRS-R change from baseline, treated vs untreated” value (subjects with ALS [8]; subgroup min_pr_interval>195, minimum group size 50)?
A: The value was −26.6%.

Q: And the “functional affinity difference between pramipexole and dexpramipexole for dopamine receptors” value (dopamine receptors)?
A: The value was 10,000-20,000 folds.
